Data: patent US20250388589A1, “TRICYCLIC HETEROCYCLIC DERIVATIVES, COMPOSITIONS AND USES THEREOF” (Danatlas Pharmaceuticals Co., Ltd., priority 2022, published 2025)

Legend:
Kuramochi cell line = assay: Cell Viability Assay (Cell Titer-Glo, 7 days); assay type: cell-based; conditions: 168 h, Kuramochi cells, 7 days incubation, read-out: PARG Cell viability (IC50)
Method: Cell viability studies were conducted in Kuramochi cell line. Cells were maintained in RPMI (Hyclone, Catalog #: SH3080901B) supplemented with 10% v/v FBS (AusGeneX, Catalog #: FBS500-S), 1% v/v Penicillin Streptomycin (Gibco, Catalog #: 15140122). Cells were seeded in 96-well plates (PerkinElmer, Catalog #: 6005680) at a density of 400 cells/well. Compounds dissolved in DMSO were plated in duplicate using a multichannel pipette, and tested on a 9-point 3-fold serial dilution. Cells were incubated for 7 days in a 37° C. active humidified incubator at 5% CO2. Cell viability was measured using the Cell Titer-Glo reagent (Promega, Catalog #: G7573) as manufacturer's instructions. Luminescence signal was measured with a multimode plate reader (Perkin Elmer, Envision 2105 or BMG, ClarioStar Plus). Average values of DMSO treated wells in a plate was calculated and as high control (HC). Average values of only medium in a plate was calculated and as low control (LC)
(§1) IC50 values were determined by fitting the data to the standard 4 parameters with Hill Slope using GraphPad Prism software.

[1] = target: hPARG (C-terminal His6-tag) (Homo sapiens (Human), UniProt Q86W56); assay: PARG Enzymatic Activity Assay (HTRF); assay type: biochemical; conditions: hPARG 65 pM final, biotinylated-NAD ribosylated PARP1 8 nM final
Chain of hPARG (C-terminal His6-tag) (Q86W56 whole entry): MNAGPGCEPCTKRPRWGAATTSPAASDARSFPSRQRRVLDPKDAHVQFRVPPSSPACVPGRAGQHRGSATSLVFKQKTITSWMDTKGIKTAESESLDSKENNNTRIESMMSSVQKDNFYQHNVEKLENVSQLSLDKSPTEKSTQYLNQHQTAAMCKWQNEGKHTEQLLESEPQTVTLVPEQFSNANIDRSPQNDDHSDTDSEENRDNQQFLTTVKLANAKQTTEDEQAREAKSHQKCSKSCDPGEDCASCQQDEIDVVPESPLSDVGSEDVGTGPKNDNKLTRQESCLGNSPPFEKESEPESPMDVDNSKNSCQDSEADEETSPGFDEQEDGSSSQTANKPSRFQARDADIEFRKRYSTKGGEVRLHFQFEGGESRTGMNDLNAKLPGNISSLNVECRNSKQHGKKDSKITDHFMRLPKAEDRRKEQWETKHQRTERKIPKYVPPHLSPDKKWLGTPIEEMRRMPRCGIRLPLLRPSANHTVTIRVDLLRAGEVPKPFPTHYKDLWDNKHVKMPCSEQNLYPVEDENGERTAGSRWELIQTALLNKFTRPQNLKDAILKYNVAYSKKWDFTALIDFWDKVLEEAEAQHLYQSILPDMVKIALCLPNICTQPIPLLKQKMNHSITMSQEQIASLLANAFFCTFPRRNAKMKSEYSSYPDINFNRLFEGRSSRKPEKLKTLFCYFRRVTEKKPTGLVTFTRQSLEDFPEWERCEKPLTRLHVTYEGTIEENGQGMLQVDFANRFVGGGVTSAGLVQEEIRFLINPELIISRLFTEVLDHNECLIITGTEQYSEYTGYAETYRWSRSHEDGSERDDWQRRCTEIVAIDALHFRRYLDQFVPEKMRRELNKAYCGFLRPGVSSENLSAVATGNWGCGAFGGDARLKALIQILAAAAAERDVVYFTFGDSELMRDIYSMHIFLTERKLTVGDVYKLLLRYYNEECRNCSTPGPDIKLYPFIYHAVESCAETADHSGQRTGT
Method: PARG Enzymatic Activity Assay HTRF assay was used to measure the ability of compounds to inhibit the activity of PARG in vitro. C-terminal His6-tag PARG expressed in E. coli was purified and stored at −80° C. in aliquots. Assay measurements were performed with 1×buffer comprising 50 mM Tris pH 7.4, 0.1 mg/mL BSA, 3 mM EDTA, 0.4 mM EGTA, 1 mM DTT, 50 mM KCl and 0.01% Tween 20.
Compounds dissolved in DMSO were plated into a 384-well assay plate (PerkinElmer, Catalog #: 6008280) in duplicate using a dispenser (Labcyte, Echo 665), and tested on a 10-point 4-fold serial dilution. Add 5 L Enzyme mix [hPARG (C-terminal His6-tag, 4.2 μM), 65 pM final] to the test wells. The plates were covered and left to incubate for 60 minutes at RT before the addition of 5 L substrate mix [biotinylated-NAD ribosylated PARP1 (6.1 μM), 8 nM final] to initiate reaction. After incubating 10 minutes at RT, add 2.5 L Streptavidin-Eu cryptate (Cisbio, Catalog #: 610SAKLA) and 2.5 L Mab anti 6HIS-XL665 (Cisbio, Catalog #: 61HISXLA) to the plate, and incubate for 60 minutes at RT. Read on a multimode plate reader (PerkinElmer, Envision 2015) in time-resolved fluorescence (TRF) mode, with excitation at 337 nm and emission at both 620 nm and 665 nm. Average HTRF signal of high control (Wells with 1% DMSO) was calculated and as Vehicle Control (VC). Average HTRF signal of low control (no Enzyme) was calculated and as Positive control (PC).
as §1

SMILES | IC50 (Kuramochi cell line) [nM] | IC50 [1] [nM]
CC1(NS(=O)(=O)c2ccc3c4c(N5CCN(C(=O)C6CC6)CC5)ncnc4n(-c4nnc(C(F)F)s4)c3c2)CC1 [Example 1, 4-(4-(Cyclopropanecarbonyl)piperazin-1-yl)-9-(5-(difluoromethyl)-1,3,4-thiadiazol-2-yl)-N-(1-methylcyclopropyl)-9H-pyrimido[4,5-b]indole-7-sulfonamide] | 100 to 1000 | < 100
N#CC1(NS(=O)(=O)c2ccc3c4c(N5CCN(C(=O)C6CC6)CC5)ncnc4n(-c4nnc(C(F)F)s4)c3c2)CC1 [Example 2, N-(1-Cyanocyclopropyl)-4-(4-(cyclopropanecarbonyl)piperazin-1-yl)-9-(5-(difluoromethyl)-1,3,4-thiadiazol-2-yl)-9H-pyrimido[4,5-b]indole-7-sulfonamide] | < 100 | < 100
CC(C)(C)C(=O)N1CCN(c2ncnc3c2c2ccc(S(=O)(=O)NC4(C#N)CC4)cc2n3-c2nnc(C(F)F)s2)CC1 [Example 3, N-(1-Cyanocyclopropyl)-9-(5-(difluoromethyl)-1,3,4-thiadiazol-2-yl)-4-(4-pivaloylpiperazin-1-yl)-9H-pyrimido[4,5-b]indole-7-sulfonamide] | < 100 | < 100
CC1(C(=O)N2CCN(c3ncnc4c3c3ccc(S(=O)(=O)NC5(C#N)CC5)cc3n4-c3nnc(C(F)F)s3)CC2)CCC1 [Example 4, N-(1-Cyanocyclopropyl)-9-(5-(difluoromethyl)-1,3,4-thiadiazol-2-yl)-4-(4-(1-methylcyclobutane-1-carbonyl)piperazin-1-yl)-9H-pyrimido[4,5-b]indole-7-sulfonamide] | 100 to 1000 | < 100
C[C@@H]1CN(c2ncnc3c2c2ccc(S(=O)(=O)NC4(C#N)CC4)cc2n3-c2nnc(C(F)F)s2)CCN1C(=O)C1CCC1 [Example 5, (R)-N-(1-Cyanocyclopropyl)-4-(4-(cyclobutanecarbonyl)-3-methylpiperazin-1-yl)-9-(5-(difluoromethyl)-1,3,4-thiadiazol-2-yl)-9H-pyrimido[4,5-b]indole-7-sulfonamide] | 100 to 1000 | < 100
CN(C)C(=O)N1CCN(c2ncnc3c2c2ccc(S(=O)(=O)NC4(C#N)CC4)cc2n3-c2nnc(C(F)F)s2)CC1 [Example 6, 4-(7-(N-(1-Cyanocyclopropyl)sulfamoyl)-9-(5-(difluoromethyl)-1,3,4-thiadiazol-2-yl)-9H-pyrimido[4,5-b]indol-4-yl)-N,N-dimethylpiperazine-1-carboxamide] | < 100 | < 100
CCN(C)C(=O)N1CCN(c2ncnc3c2c2ccc(S(=O)(=O)NC4(C#N)CC4)cc2n3-c2nnc(C(F)F)s2)CC1 [Example 7, 4-(7-(N-(1-Cyanocyclopropyl)sulfamoyl)-9-(5-(difluoromethyl)-1,3,4-thiadiazol-2-yl)-9H-pyrimido[4,5-b]indol-4-yl)-N-ethyl-N-methylpiperazine-1-carboxamide] | < 100 | < 100
N#CC1(NS(=O)(=O)c2ccc3c4c(N5CCN(C(=O)N6CCOCC6)CC5)ncnc4n(-c4nnc(C(F)F)s4)c3c2)CC1 [Example 8, N-(1-Cyanocyclopropyl)-9-(5-(difluoromethyl)-1,3,4-thiadiazol-2-yl)-4-(4-(morpholine-4-carbonyl)piperazin-1-yl)-9H-pyrimido[4,5-b]indole-7-sulfonamide] | < 100 | < 100
CN1CCN(C(=O)N2CCN(c3ncnc4c3c3ccc(S(=O)(=O)NC5(C#N)CC5)cc3n4-c3nnc(C(F)F)s3)CC2)CC1 [Example 9, N-(1-Cyanocyclopropyl)-9-(5-(difluoromethyl)-1,3,4-thiadiazol-2-yl)-4-(4-(4-methylpiperazine-1-carbonyl)piperazin-1-yl)-9H-pyrimido[4,5-b]indole-7-sulfonamide] | 100 to 1000 | < 100
CC1(C(=O)N2CCN(c3ncnc4c3c3ccc(S(=O)(=O)NC5(C#N)CC5)cc3n4-c3nnc(C(F)F)s3)CC2)CC1 [Example 10, N-(1-Cyanocyclopropyl)-9-(5-(difluoromethyl)-1,3,4-thiadiazol-2-yl)-4-(4-(1-methylcyclopropane-1-carbonyl)piperazin-1-yl)-9H-pyrimido[4,5-b]indole-7-sulfonamide] | < 100 | < 100
CC(C)C(=O)N1CCN(c2ncnc3c2c2ccc(S(=O)(=O)NC4(C#N)CC4)cc2n3-c2nnc(C(F)F)s2)CC1 [Example 11, N-(1-Cyanocyclopropyl)-9-(5-(difluoromethyl)-1,3,4-thiadiazol-2-yl)-4-(4-isobutyrylpiperazin-1-yl)-9H-pyrimido[4,5-b]indole-7-sulfonamide] | < 100 | < 100
N#CC1(NS(=O)(=O)c2ccc3c4c(N5CCN(C(=O)C6CCOCC6)CC5)ncnc4n(-c4nnc(C(F)F)s4)c3c2)CC1 [Example 12, N-(1-Cyanocyclopropyl)-9-(5-(difluoromethyl)-1,3,4-thiadiazol-2-yl)-4-(4-(tetrahydro-2H-pyran-4-carbonyl)piperazin-1-yl)-9H-pyrimido[4,5-b]indole-7-sulfonamide] | < 100 | < 100
N#CC1(NS(=O)(=O)c2ccc3c4c(N5CCN(C(=O)c6ccc(F)cc6)CC5)ncnc4n(-c4nnc(C(F)F)s4)c3c2)CC1 [Example 13, N-(1-Cyanocyclopropyl)-9-(5-(difluoromethyl)-1,3,4-thiadiazol-2-yl)-4-(4-(4-fluorobenzoyl)piperazin-1-yl)-9H-pyrimido[4,5-b]indole-7-sulfonamide] | 100 to 1000 | 100 to 1000
N#CC1(NS(=O)(=O)c2ccc3c4c(N5CCN(C(=O)c6ccccn6)CC5)ncnc4n(-c4nnc(C(F)F)s4)c3c2)CC1 [Example 14, N-(1-Cyanocyclopropyl)-9-(5-(difluoromethyl)-1,3,4-thiadiazol-2-yl)-4-(4-picolinoylpiperazin-1-yl)-9H-pyrimido[4,5-b]indole-7-sulfonamide] | < 100 | –
CC(C)OC(=O)N1CCN(c2ncnc3c2c2ccc(S(=O)(=O)NC4(C#N)CC4)cc2n3-c2nnc(C(F)F)s2)CC1 [Example 15, Isopropyl 4-(7-(N-(1-cyanocyclopropyl)sulfamoyl)-9-(5-(difluoromethyl)-1,3,4-thiadiazol-2-yl)-9H-pyrimido[4,5-b]indol-4-yl)piperazine-1-carboxylate] | 100 to 1000 | 100 to 1000
N#CC1(NS(=O)(=O)c2ccc3c4c(N5CCN(c6nccs6)CC5)ncnc4n(-c4nnc(C(F)F)s4)c3c2)CC1 [Example 16, N-(1-Cyanocyclopropyl)-9-(5-(difluoromethyl)-1,3,4-thiadiazol-2-yl)-4-(4-(thiazol-2-yl)piperazin-1-yl)-9H-pyrimido[4,5-b]indole-7-sulfonamide] | 100 to 1000 | 100 to 1000
N#CC1(NS(=O)(=O)c2ccc3c4c(N5CCN(c6ccccn6)CC5)ncnc4n(-c4nnc(C(F)F)s4)c3c2)CC1 [Example 17, N-(1-Cyanocyclopropyl)-9-(5-(difluoromethyl)-1,3,4-thiadiazol-2-yl)-4-(4-(pyridin-2-yl)piperazin-1-yl)-9H-pyrimido[4,5-b]indole-7-sulfonamide] | 100 to 1000 | 100 to 1000
N#CC1(NS(=O)(=O)c2ccc3c4c(N5CCN(c6ncccn6)CC5)ncnc4n(-c4nnc(C(F)F)s4)c3c2)CC1 [Example 18, N-(1-Cyanocyclopropyl)-9-(5-(difluoromethyl)-1,3,4-thiadiazol-2-yl)-4-(4-(pyrimidin-2-yl)piperazin-1-yl)-9H-pyrimido[4,5-b]indole-7-sulfonamide] | 100 to 1000 | 100 to 1000
N#CC1(NS(=O)(=O)c2ccc3c4c(N5CCN(c6cccnn6)CC5)ncnc4n(-c4nnc(C(F)F)s4)c3c2)CC1 [Example 19, N-(1-Cyanocyclopropyl)-9-(5-(difluoromethyl)-1,3,4-thiadiazol-2-yl)-4-(4-(pyridazin-3-yl)piperazin-1-yl)-9H-pyrimido[4,5-b]indole-7-sulfonamide] | 100 to 1000 | < 100
CC(C)C(=O)N1C[C@H]2CC[C@@H]1CN2c1ncnc2c1c1ccc(S(=O)(=O)NC3(C#N)CC3)cc1n2-c1nnc(C(F)F)s1 [Example 32, N-(1-Cyanocyclopropyl)-9-(5-(difluoromethyl)-1,3,4-thiadiazol-2-yl)-4-((1R,4R)-5-isobutyryl-2,5-diazabicyclo[2.2.2]octan-2-yl)-9H-pyrimido[4,5-b]indole-7-sulfonamide] | 100 to 1000 | –
